According to PubChem BioAssay (NCI):
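Step 1: Grow cells in 96-well plates. Step 2: Expose to compound for 48 hours at 5 concentrations. Step 3: Interpolate endpoints linearly; if unreached, use highest concentration. Here, GI50 denotes the concentration required for 50% inhibition of growth. The concentration for full growth arrest is given as TGI.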 Where a SMILES comes first, the peptide text is derived from it. [ ]: non-standard residue; d: D form. The star is where a group is joined. Cbz = O=C(OCc1ccccc1)*; Aib = CC(C)(N)C(=O)O; OBn = c1ccc(CO*)cc1

system: COLO 205 colon; experiment: NCI anticancer screen, dose series, 48 h

Compound | TGI [µM]
CC(C)(CO)CNc1nc(N)nc(Cl)c1/C=N/O | > 100
COc1ccc2oc(=N)c(C(=O)Nc3ccccc3)cc2c1 | > 100
O=c1onc2n1-c1cc(Cl)ccc1C(=S)N1CSCC21 (configuration not stated) | > 100
CN1CC[C@]2(c3cccc(O)c3)CC(=O)/C(=C/c3ccccc3)[C@@H]1C2 | 18.1
O=C(O)C(O)C(O)C(O)C(O)CO (configuration not stated) | > 100
OC(C#CCN1CCCC1)(c1ccccc1)c1ccccc1Cl (configuration not stated) | 25
CCc1n[nH]c(=O)n1-c1ccc2ccccc2c1 | > 100
CSc1nc2c(c(N(C)C)n1)C(O)n1c(nc3ccccc31)S2 (configuration not stated) | > 100
O=C1CSC2(CC(/C=C/c3cccs3)=NN2c2cccc(S(=O)(=O)O)c2)N1c1nc2ccccc2s1 (configuration not stated) | > 100
C[C@@H]1CCC2[C@@H](C)[C@@H](O[C@H]3O[C@@H]4O[C@@]5(C)CCC6[C@H](C)CCC([C@H]3C)[C@]64OO5)O[C@@H]3O[C@@]4(C)CCC1[C@@]23OO4 (some centres not stated) | > 25
O=C(c1ccccc1)c1ccc2c(c1)NC(=O)c1ccccc1SSc1ccccc1C(=O)N2 | > 100
COc1ccc(CC(N)=O)cc1OC | > 1250
CCOC(=O)CNC(=O)NC12CC3CC(CC(C3)C1)C2 | 363
O=C(NCCCl)O/N=C/c1cccnc1 | > 100

system: A549 NSCLC; experiment: NCI anticancer screen, dose series, 48 h

Compound | TGI [µM]
Cc1cc(N(C)C)c2ccccc2[n+]1CCCCCCCCCC[n+]1c(C)cc(N(C)C)c2ccccc21 | 18
CO/N=C(/C(=O)OC)c1ccccc1COc1ccccc1C(F)(F)F | > 100
N#Cc1sc2c(c1OC(=O)c1ccc(C(F)(F)F)cc1)c(=O)n(-c1ccccc1)c(=S)n2-c1ccccc1 | > 100
CCOC(=O)/C(C(C)=O)=C(\OC(C)=O)c1ccncc1C(=O)O | > 100
CCOC(=O)CC/C(=N/Nc1ccc(Cl)cc1[N+](=O)[O-])C(=O)OCC | > 100
Nc1ncc2c(n1)-c1ccccc1OC2N1CCCC1 (configuration not stated) | > 100
COc1cc(O)c2c(=O)c(OC)c(-c3ccc(OC)c(O)c3)oc2c1 | > 100
O=c1c2c(no[n+]2[O-])c2ccccc2n1-c1ccccc1 | 35.1
CC(NC(=O)C(C)(C)NC(=O)C(CC(=O)OCc1ccccc1)NC(=O)OCc1ccccc1)C(N)=O (configuration not stated) (Cbz-Asp(OBn)-[Aib]-Ala-NH2; configuration not given here) | > 100
Clc1ccc(C=NC23CC4CC(CC(C4)C2)C3)c(Cl)c1 | > 10
c1ccc(C(C(=Nc2ccc(Cc3ccc(N=C(C(c4ccccc4)c4ccccc4)N4CC4)cc3)cc2)N2CC2)c2ccccc2)cc1 | 22.3
OCCCc1ccc2c(c1)[C@H](CO)[C@@H](c1ccc(O)cc1)O2 | > 100
c1ccc(C2=NOC(c3ccccc3)N2C23CC4CC(CC(C4)C2)C3)cc1 (configuration not stated) | > 10
CCOC(=O)C(NC(=O)CC)(N1CCN(c2cc3c(cc2F)c(=O)c(C(=O)O)cn3C2CC2)CC1)C(F)(F)F (configuration not stated) | > 100
CC12c3c4ccc(C=O)c3Oc3ccc(C=O)c(c31)Oc1ccc(C=O)c(c12)O4 | > 25
O=C(CN1C(=O)CC(c2ccccc2)(c2ccccc2)C1=O)N1CCN(CCO)CC1 | > 100

Compound | TGI [µM]
O=[N+]([O-])c1cc2oc(CSc3ccccc3)nc2cc1Cl | > 100
CC(C)(CO)CNc1nc(N)nc(Cl)c1/C=N/O | > 100
COc1ccc2oc(=N)c(C(=O)Nc3ccccc3)cc2c1 | > 100
O=c1onc2n1-c1cc(Cl)ccc1C(=S)N1CSCC21 (configuration not stated) | > 100
CN1CC[C@]2(c3cccc(O)c3)CC(=O)/C(=C/c3ccccc3)[C@@H]1C2 | 13.2
O=C(O)C(O)C(O)C(O)C(O)CO (configuration not stated) | > 100
OC(C#CCN1CCCC1)(c1ccccc1)c1ccccc1Cl (configuration not stated) | > 100
CCc1n[nH]c(=O)n1-c1ccc2ccccc2c1 | > 100
CSc1nc2c(c(N(C)C)n1)C(O)n1c(nc3ccccc31)S2 (configuration not stated) | > 100
O=C1CSC2(CC(/C=C/c3cccs3)=NN2c2cccc(S(=O)(=O)O)c2)N1c1nc2ccccc2s1 (configuration not stated) | > 100
C[C@@H]1CCC2[C@@H](C)[C@@H](O[C@H]3O[C@@H]4O[C@@]5(C)CCC6[C@H](C)CCC([C@H]3C)[C@]64OO5)O[C@@H]3O[C@@]4(C)CCC1[C@@]23OO4 (some centres not stated) | > 25
O=C(c1ccccc1)c1ccc2c(c1)NC(=O)c1ccccc1SSc1ccccc1C(=O)N2 | > 100
COc1ccc(CC(N)=O)cc1OC | > 1250
CCOC(=O)CNC(=O)NC12CC3CC(CC(C3)C1)C2 | > 550
O=C(NCCCl)O/N=C/c1cccnc1 | > 100

system: RXF 393 renal; experiment: NCI anticancer screen, dose series, 48 h

Compound | TGI [µM] | GI50 [µM]
Cc1cc(N(C)C)c2ccccc2[n+]1CCCCCCCCCC[n+]1c(C)cc(N(C)C)c2ccccc21 | 35 | –
CO/N=C(/C(=O)OC)c1ccccc1COc1ccccc1C(F)(F)F | > 100 | –
N#Cc1sc2c(c1OC(=O)c1ccc(C(F)(F)F)cc1)c(=O)n(-c1ccccc1)c(=S)n2-c1ccccc1 | 61.7 | –
CCOC(=O)/C(C(C)=O)=C(\OC(C)=O)c1ccncc1C(=O)O | > 100 | –
CCOC(=O)CC/C(=N/Nc1ccc(Cl)cc1[N+](=O)[O-])C(=O)OCC | > 100 | –
Nc1ncc2c(n1)-c1ccccc1OC2N1CCCC1 (configuration not stated) | > 100 | –
COc1cc(O)c2c(=O)c(OC)c(-c3ccc(OC)c(O)c3)oc2c1 | > 100 | –
O=c1c2c(no[n+]2[O-])c2ccccc2n1-c1ccccc1 | 14.7 | –
CC(NC(=O)C(C)(C)NC(=O)C(CC(=O)OCc1ccccc1)NC(=O)OCc1ccccc1)C(N)=O (configuration not stated) (Cbz-Asp(OBn)-[Aib]-Ala-NH2; configuration not given here) | > 100 | –
Clc1ccc(C=NC23CC4CC(CC(C4)C2)C3)c(Cl)c1 | > 10 | –
c1ccc(C(C(=Nc2ccc(Cc3ccc(N=C(C(c4ccccc4)c4ccccc4)N4CC4)cc3)cc2)N2CC2)c2ccccc2)cc1 | 16.1 | –
OCCCc1ccc2c(c1)[C@H](CO)[C@@H](c1ccc(O)cc1)O2 | > 100 | –
c1ccc(C2=NOC(c3ccccc3)N2C23CC4CC(CC(C4)C2)C3)cc1 (configuration not stated) | > 10 | –
CCOC(=O)C(NC(=O)CC)(N1CCN(c2cc3c(cc2F)c(=O)c(C(=O)O)cn3C2CC2)CC1)C(F)(F)F (configuration not stated) | > 100 | –
CC12c3c4ccc(C=O)c3Oc3ccc(C=O)c(c31)Oc1ccc(C=O)c(c12)O4 | > 25 | –
O=C(CN1C(=O)CC(c2ccccc2)(c2ccccc2)C1=O)N1CCN(CCO)CC1 | > 100 | –

Compound | TGI [µM] | GI50 [µM]
O=[N+]([O-])c1cc2oc(CSc3ccccc3)nc2cc1Cl | 93 | –
CC(C)(CO)CNc1nc(N)nc(Cl)c1/C=N/O | > 100 | –
COc1ccc2oc(=N)c(C(=O)Nc3ccccc3)cc2c1 | 42.3 | –
O=c1onc2n1-c1cc(Cl)ccc1C(=S)N1CSCC21 (configuration not stated) | > 100 | –
CN1CC[C@]2(c3cccc(O)c3)CC(=O)/C(=C/c3ccccc3)[C@@H]1C2 | 4.18 | –
O=C(O)C(O)C(O)C(O)C(O)CO (configuration not stated) | > 100 | –
OC(C#CCN1CCCC1)(c1ccccc1)c1ccccc1Cl (configuration not stated) | > 100 | –
CCc1n[nH]c(=O)n1-c1ccc2ccccc2c1 | > 100 | –
CSc1nc2c(c(N(C)C)n1)C(O)n1c(nc3ccccc31)S2 (configuration not stated) | 65.3 | –
O=C1CSC2(CC(/C=C/c3cccs3)=NN2c2cccc(S(=O)(=O)O)c2)N1c1nc2ccccc2s1 (configuration not stated) | > 100 | –
C[C@@H]1CCC2[C@@H](C)[C@@H](O[C@H]3O[C@@H]4O[C@@]5(C)CCC6[C@H](C)CCC([C@H]3C)[C@]64OO5)O[C@@H]3O[C@@]4(C)CCC1[C@@]23OO4 (some centres not stated) | > 25 | –
O=C(c1ccccc1)c1ccc2c(c1)NC(=O)c1ccccc1SSc1ccccc1C(=O)N2 | > 100 | –
COc1ccc(CC(N)=O)cc1OC | > 1250 | –
CCOC(=O)CNC(=O)NC12CC3CC(CC(C3)C1)C2 | 259 | –
O=C(NCCCl)O/N=C/c1cccnc1 | > 100 | > 100
